Measurements reported in PMC8033486 (Frontiers in Pharmacology, 2021).
Structures can show the parent of a compound that is named as a salt. Where two headings read alike, the source gives them in different places. *1 amine or outer side, *2 acyl side, *3 side chain or, on linkers, in order; H or OH if unused. Where a SMILES comes first, the peptide text is derived from it. Bridges are numbered along the chain shown (N, C = ends). [ ]: non-standard residue; d: D form. The star is where a group is joined. X1 = CC[C@H](C)[C@@H](N[*:1])[C@@H](O)CC(=O)O[C@H](C(=O)[C@H](C)C(=O)[*:2])C(C)C; NMeY = CN[C@@H](Cc1ccc(O)cc1)C(=O)O; dNMeL = CN[C@H](CC(C)C)C(=O)O; Pyruvoyl = CC(=O)C(=O)*

Columns and labels:
SARS-CoV-2 = experiment: microbe, parasite or virus in culture; format: cell-based
in vitro = conditions: African green monkey
[1] = Severe acute respiratory syndrome coronavirus 2, Vero C1008, Vero E6, one representative experiment with two replicates, when combined, each drug at the same concentration, read-out: IC50 value of the particular graph
[2] = CC50, Vero E6, no virus, 3 days

Compound: CC1SCC(C(=O)NC(Cc2cnc[nH]2)C(=O)N2CCCC2C(N)=O)NC1=O.O=C(O)C(F)(F)F (stereo not drawn) [Montirelin trifluoroacetate salt]
- IC50 (Mean +/- SD) (SARS-CoV-2): Not Active

Compound: CCOC(=O)C1=C(CN2CCOCC2)NC(c2nccs2)=NC1c1ccc(F)cc1Br (stereo not drawn) [Morphothiadine]
- IC50 (Mean +/- SD) (SARS-CoV-2): Not Active

Compound: CC(=O)N[C@@H](CS)C(=O)O [N-Acetil cystein]
- IC50 (Mean +/- SD) (SARS-CoV-2): Not Active

Compound: Cc1c(O)cccc1C(=O)N[C@@H](CSc1ccccc1)[C@H](O)CN1C[C@H]2CCCC[C@H]2C[C@H]1C(=O)NC(C)(C)C [Nelfinavir mesylate hydrate]
- IC50 (SARS-CoV-2; Severe acute respiratory syndrome coronavirus 2, Vero C1008, 72 h, Vero E6, cytopathic effect 3 days after infection, repeated experiments, read-out: IC50 (Mean +/- SD)): < 10 µM
- IC50 (SARS-CoV-2; [1]): 1.4 µM
- CC50 at 3 days (in vitro; [2]): > 25 µM

Compound: O=C(Nc1ccc([N+](=O)[O-])cc1Cl)c1cc(Cl)ccc1O [Niclosamide]
- Inhibition of SARS-CoV-2-induced cytopathic effect, result in words (SARS-CoV-2; Vero E6): failed to protected Vero E6 cells from SARS-CoV-2 induced cytopathic effect
- CC50 at 3 days (in vitro; [2]): > 9 µM

Compound: CC(=O)c1c(C)c2cnc(Nc3ccc(N4CCNCC4)cn3)nc2n(C2CCCC2)c1=O [Palbociclib]
- CC50 at 3 days (in vitro; [2]): 2.7 µM

Compound: CCOC(=O)Cn1cccc1-c1nc(-c2ccc(OC)cc2)c(-c2ccc(OC)cc2)s1 [Pamicogrel]
- CC50 at 3 days (in vitro; CC50): 6.4 µM

Compound: N#Cc1ccccc1-c1cc(-c2ccccn2)cn(-c2ccccc2)c1=O [Perampanel]
- IC50 (Mean +/- SD) (SARS-CoV-2): Not Active

Compound: CC[C@H](C)[C@H]1NC(=O)[C@@H](NC(=O)[C@@H](CC(C)C)N(C)C(=O)[C@@H]2CCCN2C(=O)C(C)=O)[C@@H](C)OC(=O)[C@H](Cc2ccc(OC)cc2)N(C)C(=O)[C@@H]2CCCN2C(=O)[C@H](CC(C)C)NC(=O)[C@@H](C)C(=O)[C@H](C(C)C)OC(=O)C[C@@H]1O [Plitidepsin] (Pyruvoyl-P[dNMeL]T[X1]LP[NMeY](Me); ester 3-C)
- IC50 (SARS-CoV-2; Severe acute respiratory syndrome coronavirus 2, Vero C1008, 72 h, read-out: IC50 (Mean +/- SD)): 0.06 µM
- IC50 (SARS-CoV-2; [1]): 0.05 µM
- Inhibition of SARS-CoV-2-induced cytopathic effect, result in words (SARS-CoV-2; Vero E6): always in nM concentrations
- CC50 (in vitro): > 0.1 µM

Compound: CCN(CC)CCCC(C)Nc1c2ccc(Cl)cc2nc2ccc(OC)cc12 (stereo not drawn) [Quinacrine dihydrochloride]
- CC50 at 3 days (in vitro; [2]): > 6 µM

Compound: CCC(CC)COC(=O)[C@H](C)N[P@](=O)(OC[C@H]1O[C@@](C#N)(c2ccc3c(N)ncnn23)[C@H](O)[C@@H]1O)Oc1ccccc1 [Remdesivir]
- IC50 (SARS-CoV-2; [1]): 1.2 µM
- IC50 (SARS-CoV-2; Vero E6, cytopathic effect 3 days after infection, repeated experiments, read-out: IC50 (Mean +/- SD)): < 10 µM
- CC50 (in vitro): > 85 µM

Compound: CN(C)C(=O)c1cc2cnc(Nc3ccc(N4CCNCC4)cn3)nc2n1C1CCCC1 [Ribociclib]
- IC50 (Mean +/- SD) (SARS-CoV-2): Not Active
- CC50 at 3 days (in vitro; [2]): > 20 µM

Compound: CC(C)(C)NC(=O)[C@@H]1C[C@@H]2CCCC[C@@H]2CN1C[C@@H](O)[C@H](Cc1ccccc1)NC(=O)[C@H](CC(N)=O)NC(=O)c1ccc2ccccc2n1 [Saquinavir]
- CC50 at 3 days (in vitro; [2]): > 28 µM

Compound: COc1cc(C2Oc3cc([C@H]4Oc5cc(O)cc(O)c5C(=O)[C@@H]4O)ccc3OC2CO)ccc1O (stereo partly drawn) [Silibinin]
- CC50 at 3 days (in vitro; [2]): > 20 µM

Compound: CC(C)OC(=O)[C@H](C)N[P@](=O)(OC[C@H]1O[C@@H](n2ccc(=O)[nH]c2=O)[C@](C)(F)[C@@H]1O)Oc1ccccc1 [Sofosbuvir]
- IC50 (Mean +/- SD) (SARS-CoV-2): Not Active
- CC50 (in vitro): > 100 µM

Compound: CC(C)OC(=O)[C@H](C)N[P@](=O)(CO[C@H](C)Cn1cnc2c(N)ncnc21)Oc1ccccc1 [Tenofovir Alafenamide]
- IC50 (Mean +/- SD) (SARS-CoV-2): Not Active
- Inhibition of SARS-CoV-2-induced cytopathic effect, result in words (SARS-CoV-2): failed to show any antiviral effect
- CC50 (in vitro): > 100 µM

Compound: CC(C)OC(=O)OCOP(=O)(CO[C@H](C)Cn1cnc2c(N)ncnc21)OCOC(=O)OC(C)C [Tenofovir disoproxil fumarate]
- Inhibition of SARS-CoV-2-induced cytopathic effect, result in words (SARS-CoV-2; Vero E6): failed to show any antiviral effect
- CC50 (in vitro): > 100 µM

Compound: COc1c(O[C@@H]2O[C@H](CO)[C@@H](O)[C@H](O)[C@H]2O)cc2c(c1OC)-c1ccc(SC)c(=O)cc1[C@@H](NC(C)=O)CC2 [Thiocolchicoside]
- IC50 (Mean +/- SD) (SARS-CoV-2): Not Active

Compound: CCC[C@@]1(CCc2ccccc2)CC(O)=C([C@H](CC)c2cccc(NS(=O)(=O)c3ccc(C(F)(F)F)cn3)c2)C(=O)O1 [Tipranavir]
- Inhibition of SARS-CoV-2-induced cytopathic effect, result in words (SARS-CoV-2; Vero E6): inhibited SARS-CoV-2-induced cytopathic effect at the non-toxic concentration of 20 μM
- CC50 at 3 days (in vitro; [2]): > 70 µM

Compound: COC[C@H]1C[C@@H](c2ncc(-c3ccc4c(c3)COc3cc5c(ccc6nc([C@@H]7CC[C@H](C)N7C(=O)[C@@H](NC(=O)OC)C(C)C)[nH]c65)cc3-4)[nH]2)N(C(=O)[C@H](NC(=O)OC)c2ccccc2)C1 [Velpatasvir]
- CC50 at 3 days (in vitro; CC50): > 10 µM

Compound: Ivermectin
- IC50 (Mean +/- SD) (SARS-CoV-2): Not Active

Compound: Laflunimus Sodium Salt
- IC50 (Mean +/- SD) (SARS-CoV-2): Not Active

Compound: Methyl-ß-cyclodextrin
- IC50 (Mean +/- SD) (SARS-CoV-2): active at 1000
- Inhibition of SARS-CoV-2-induced cytopathic effect, result in words (SARS-CoV-2; Vero E6): abrogate SARS-CoV-2 induced cytopathic effect

Compound: interferon-γ [IFN stimulated antivirus proteins; granulomatous disease]
- Inhibition of SARS-CoV-2-induced cytopathic effect, result in words (SARS-CoV-2; Vero E6): displayed antiviral activity
